Data on 26 compounds can be found in US10919896B2, “Preparation and uses of pyrimidinone derivatives” (Cancer Research Technology Limited, priority 2016, dated 2021).

Assay [1] has as its system Cdc7 (pS53MCM2 levels in SW48 cells). Put plainly: Cdc7 Cell Pharmacodynamics Assay Method 3: pS53MCM2 levels in SW48 cells, 6 hours. Format: cell-based. The note with it: for EC50: Homo sapiens, SW48, 6 h, read-out: Biomarker Method 3 (pEC50) (converted). An excerpt: This protocol describes a method to investigate the inhibition of Cdc7 activity by measuring pS53MCM2 levels in cells, after treatment with compounds.
• SW48 cells • RPMI 1640 (Sigma, R5886) • 10% FCS (Sera Laboratories International Ltd, EU000F Batch:108005) • 100× L-Glutamine (Invitrogen, 25030-024) • D-Glucose Solution (10%) (Sigma, G8644) • HEPES Buffer Solution (Sigma, 83264) • Sodium Pyruvate (Sigma, S8636) • PBS (Fisger, BP399-4) • Trypsin/EDTA (Invitrogen 25300-054) • 2% BSA in PBS • Cell Extraction Buffer (Invitrogen FNN0011) • Protease inhibitor cocktail (Sigma P-2714) • PMSF 0.3M stock in DMSO (Sigma P7626) • Antibody-rabbit pMCM2 Ser53 (Bethyl #A300-756A) • Antibody-goat MCM2 (Bethyl #A300-122A) • Antibody-goat Anti Rabbit IgG HRP (Perbio Science UK Ltd 31462) • SuperSignal ELISA Pico Chemiluminescent Substrate (Perbio Science UK Ltd 37070) Method • Plate 30,000 SW48 cells per well in standard TC treated 96 well plate in 100 μL complete RPMI 1640 medium. • Allow cells to settle overnight in incubator set at 37° C. and 5% CO2. • Cell treatment: prepare a 384 well plate containing 80 μl PBS/well. The PBS should be at room temperature—to be referred to as intermediate plate. Transfer 2 μL of compound from mother plate to intermediate (daughter plate) 1:40 dilution, then 5 μL intermediate to cell (daughter) plate. • Once all cells are treated place the cells back to the incubator and incubate for 6 hours. • Dilute the capture antibody (total MCM2#A300-122A) 1 in 250 in the required volume of PBS (5 mL per assay plate, plus 5 mL for dead volume) and add 50 μL to each well of a Hybond plate. Seal the plate and incubate at room temperature for a minimum of 2 hours. • Defrost aliquot of Invitrogen Cell Extraction Buffer (FNN0011) on ice and supplement with appropriate volume of both Sigma protease inhibitor cocktail (P-2714) and PMSF (final conc 1 mM from a 1 M stock in DMSO). • After the 6 hour cell treatment time, tap out the media from the assay plates and place them in the −80° C. freezer for at least 5 minutes. • Remove plates from freezer and add 20 μL of ice cold complete lysis buffer, with the multidrop. Incubate cells for 30 minutes at 4° C. • Add 80 μL per well 2% BSA. • Flick out the remaining liquid from the capture plate and transfer 80 μL from the lysis plate to the same wells in the capture/ELISA plate, using the Biomek. Cover with plate seal and incubate plates overnight at 4° C. • Wash plates with PBS, remove any residual remaining liquid and add 50 μL per well of pMCM2 Ser53 antibody (#A300-756A) diluted 1 in 100 in 2% BSA. Cover plate and incubate at room temperature for 2 hours with gentle shaking. • Wash plates with PBS, remove any residual remaining liquid and Incubate with 50 μL goat anti rabbit antibody (1 in 800 dilution in 2% BSA), for 1 hour at room temperature. • Wash plates with PBS, remove any residual remaining liquid and add 50 μL mixed SuperSignal Pico substrate. • Incubate each plate for 5 minutes at room temperature shielding the plates from direct light (with a cover plate). Read plates with the luminescent detection.

For the next assay, the target named is Cdc7/ASK (Homo sapiens, UniProt O00311). Put plainly: Cdc7 Biochemical Assay Method 4: off-chip mobility shift assay (Carna Biosciences). More on the design: purchased Carna Biosciences; host or cells: baculovirus expression system. The conditions noted are these: off-chip MSA, MCM2 peptide, 5 hours; read-out: Biochemical Method 4 (pIC50) (converted). On the procedure:
This protocol describes a method for assaying Cdc7/ASK for activity. The assay is an off-chip mobility shift assay (MSA) run at Carna Biosciences.
1. Preparation of Test Compound Solution.
The test compound was dissolved in and diluted with dimethylsulfoxide (DMSO) to achieve 100-fold higher concentration which was specified by the sponsor. Then the solution was further 25-fold diluted with assay buffer to make the final test compound solution. Reference compounds for assay control were prepared similarly.
Cdc7/ASK: Full-length human Cdc7 [1-574(end) amino acids of accession number NP_003494.1] was co-expressed as N-terminal GST-fusion protein (92 kDa) with Dbf4(ASK) [1-674(end) amino acids of accession number NP_006707.1] using baculovirus expression system. GST-Cdc7 was purified by using glutathione sepharose chromatography.
3. Assay Reagents and Procedures
Off-chip Mobility Shift Assay (MSA)
1) The […] of ×2 kinase solution were prepared with assay buffer (20 mM HEPES, 0.01% Triton X-100, 1 mM DTT, pH 7.5) and mixed and incubated in a well of polypropylene 384 well microplate for 5 hours at room temperature. 2) […] of Termination Buffer (QuickScout Screening Assist MSA; Carna Biosciences) was added to the well. 3) The reaction mixture was applied to LabChip system (Perkin Elmer), and the product and substrate peptide peaks were separated and quantitated. 4) The kinase reaction was evaluated by the product ratio calculated from peak heights of product (P) and substrate (S) peptides (P/(P+S)).
Reaction time is 5 hours.
The readout value of reaction control (complete reaction mixture) was set as a 0% inhibition, and the readout value of background (Enzyme(−)) was set as a 100% inhibition, then the percent inhibition of each test solution was calculated.
IC50 value was calculated from concentration vs. % Inhibition curves by fitting to a four parameter logistic curve.

SMILES strings stand for the structures. Where a name gives a salt, the structure may show the parent alone. Read-outs that look alike come from different tables or passages of the source.

Sequence of Cdc7/ASK (O00311 whole entry): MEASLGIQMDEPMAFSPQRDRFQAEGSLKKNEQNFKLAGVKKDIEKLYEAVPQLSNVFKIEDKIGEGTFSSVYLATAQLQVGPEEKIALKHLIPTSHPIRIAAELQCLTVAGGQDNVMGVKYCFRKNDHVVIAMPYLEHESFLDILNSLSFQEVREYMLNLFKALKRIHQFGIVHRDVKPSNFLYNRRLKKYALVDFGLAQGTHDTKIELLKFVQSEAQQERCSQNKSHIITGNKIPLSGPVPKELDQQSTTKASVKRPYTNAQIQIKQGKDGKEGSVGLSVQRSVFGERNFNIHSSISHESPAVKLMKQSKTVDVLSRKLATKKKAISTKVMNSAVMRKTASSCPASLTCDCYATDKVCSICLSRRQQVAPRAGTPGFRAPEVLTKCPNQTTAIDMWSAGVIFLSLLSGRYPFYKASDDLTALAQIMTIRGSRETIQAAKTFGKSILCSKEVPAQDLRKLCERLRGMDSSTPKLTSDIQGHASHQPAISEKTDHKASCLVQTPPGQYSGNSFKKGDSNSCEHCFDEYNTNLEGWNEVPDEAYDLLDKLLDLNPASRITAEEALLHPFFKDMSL
Sequence of Cdc7/ASK (Q9UBU7 whole entry partner): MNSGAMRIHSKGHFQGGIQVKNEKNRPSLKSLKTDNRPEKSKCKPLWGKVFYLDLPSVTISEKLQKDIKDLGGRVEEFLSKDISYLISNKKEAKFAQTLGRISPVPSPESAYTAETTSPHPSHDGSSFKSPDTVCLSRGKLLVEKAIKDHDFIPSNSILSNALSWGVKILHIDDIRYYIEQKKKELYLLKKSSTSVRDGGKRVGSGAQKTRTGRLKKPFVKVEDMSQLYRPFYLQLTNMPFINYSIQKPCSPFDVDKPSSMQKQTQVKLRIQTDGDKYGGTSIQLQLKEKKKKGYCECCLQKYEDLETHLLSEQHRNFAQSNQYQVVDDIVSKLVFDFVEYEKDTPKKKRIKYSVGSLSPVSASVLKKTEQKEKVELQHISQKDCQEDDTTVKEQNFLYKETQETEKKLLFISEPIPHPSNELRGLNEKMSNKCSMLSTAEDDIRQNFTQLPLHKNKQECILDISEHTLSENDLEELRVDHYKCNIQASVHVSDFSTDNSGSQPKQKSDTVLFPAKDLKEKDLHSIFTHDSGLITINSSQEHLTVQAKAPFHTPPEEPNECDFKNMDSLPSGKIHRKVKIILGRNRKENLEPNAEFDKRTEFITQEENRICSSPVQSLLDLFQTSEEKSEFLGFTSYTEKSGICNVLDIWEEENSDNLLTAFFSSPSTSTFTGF

With `Cl.O=c1[nH]c(-c2ccnc(F)c2)nc(N2CCNCC(C(F)(F)F)C2)c1Cl` (stereo not shown) [Compound 386], in assay [1], the “Biomarker Method 3 (pEC50)” value turned out to be 6.00. Besides, at Cdc7/ASK, the IC50 is 5.62 nM.

With `Cl.O=c1[nH]c(-c2ccnc(F)c2)nc(N2CCNCC2C(F)F)c1Cl` (single isomer, unassigned) [Compound 390], the “Biomarker Method 3 (pEC50)” value in assay [1] stood at 6.97. Besides, the IC50 on Cdc7/ASK was 4.27 nM.

On to `C[C@H]1CN[C@@H](C(F)(F)F)CN1c1nc(-c2ccnc(F)c2)[nH]c(=O)c1Cl.Cl` (single isomer, unassigned) [Compound 395, Cis-5-chloro-2-(2-fluoro-4-pyridyl)-4-[2-methyl-5-(trifluoromethyl)piperazin-1-yl]-1H-pyrimidin-6-one hydrochloride], for which the “Biomarker Method 3 (pEC50)” value in assay [1] (hydrochloride) is 5.67. In addition, the IC50 on Cdc7/ASK is 7.76 nM.

Take `Cl.O=c1[nH]c(-c2ccncc2)nc(N2CCNCC2C(F)(F)F)c1Cl` (single isomer, unassigned) [Compound 388]: the “Biomarker Method 3 (pEC50)” value in assay [1] was determined as 5.29. Besides, on Cdc7/ASK, the IC50 was 91.2 nM.

For `Cl.O=c1[nH]c(-c2ccnc(F)c2)nc(N2CCNCC(C(F)(F)F)C2)c1Cl` (stereo not shown) [Compound 385], the “Biomarker Method 3 (pEC50)” value in assay [1] is 5.87. For the same compound, on Cdc7/ASK, the IC50 is 11.5 nM.

Turning to `C[C@@H]1CNCCN1c1nc(-c2ccncc2F)[nH]c(=O)c1Cl` [Compound 400], the EC50 in assay [1] was 195 nM. The IC50 on Cdc7/ASK was 5.75 nM.

For the compound `CC(C)(F)C1CN(c2nc(-c3ccnc(F)c3)[nH]c(=O)c2Cl)CCN1` (single isomer, unassigned) [Compound 381, 5-chloro-4-[3-(1-fluoro-1-methyl-ethyl)piperazin-1-yl]-2-(2-fluoro-4-pyridyl)-1H-pyrimidin-6-one hydrochloride], in assay [1] (hydrochloride), the “Biomarker Method 3 (pEC50)” value stood at 5.32. Further, on Cdc7/ASK, the IC50 was 70.8 nM.

As for `O=c1[nH]c(-c2ccnc(F)c2)nc(N2CCNCC(F)C2)c1Cl` (stereo not shown) [Compound 373], in assay [1], the EC50 is 389 nM. The IC50 on Cdc7/ASK was 5.25 nM.

Take `O=c1[nH]c(-c2ccnc(Cl)c2)nc(N2CCNCC(F)(F)C2)c1Cl` [Compound 401]: the EC50 in assay [1] was 437 nM. Further, the IC50 on Cdc7/ASK was 4.79 nM.

Turning to `O=c1[nH]c(-c2ccnc(F)c2)nc(N2CCNCC(F)C2)c1Cl` (single isomer, unassigned) [Compound 380, 5-chloro-4-(6-fluoro-1,4-diazepan-1-yl)-2-(2-fluoro-4-pyridyl)-1H-pyrimidin-6-one hydrochloride], the “Biomarker Method 3 (pEC50)” value in assay [1] (hydrochloride) is listed as 6.70. In addition, at Cdc7/ASK, the IC50 is 3.98 nM.

With `CN1CCN(c2nc(-c3ccnc(F)c3)[nH]c(=O)c2Cl)CC(F)(F)C1` [Compound 415, 5-chloro-4-(6,6-difluoro-4-methyl-1,4-diazepan-1-yl)-2-(2-fluoro-4-pyridyl)-1H-pyrimidin-6-one], the EC50 in assay [1] is 708 nM. The IC50 at Cdc7/ASK was 9.33 nM.

Consider `CC(F)(F)C1CNCCN1c1nc(-c2ccnc(F)c2)[nH]c(=O)c1Cl` (stereo not shown) [Compound 392], for which, in assay [1], the EC50 is 5750 nM. Besides, the IC50 on Cdc7/ASK is 38.9 nM.

Turning to `O=c1[nH]c(-c2ccnc(F)c2)nc(N2CCNCC2C(F)F)c1Cl` (stereo not shown) [Compound 376], in assay [1], the EC50 is 141 nM. Moreover, the IC50 on Cdc7/ASK is 5.5 nM.

Regarding `O=c1[nH]c(-c2ccnc(F)c2)nc(N2CCNCC(C(F)(F)F)C2)c1Cl` (stereo not shown) [Compound 375], the EC50 in assay [1] is 1230 nM. Besides, the IC50 at Cdc7/ASK is 7.41 nM.

In the case of `Cl.O=c1[nH]c(-c2ccncc2)nc(N2CCNCC2C(F)(F)F)c1Cl` (single isomer, unassigned) [Compound 387], the “Biomarker Method 3 (pEC50)” value in assay [1] is 6.51. For the same compound, the IC50 on Cdc7/ASK is 6.03 nM.

`O=c1[nH]c(-c2ccnc(F)c2)nc(N2CCNCC2C(F)(F)F)c1Cl` (stereo not shown) [Compound 313, 5-chloro-2-(2-fluoro-4-pyridyl)-4-[2-(trifluoromethyl)piperazin-1-yl]-1H-pyrimidin-6-one hydrochloride]: in assay [1], the EC50 is 759 nM. The IC50 at Cdc7/ASK was 8.51 nM.

Turning to `C[C@H]1CN[C@@H](C(F)(F)F)CN1c1nc(-c2ccnc(F)c2)[nH]c(=O)c1Cl.Cl` (single isomer, unassigned) [Compound 396, Cis-5-chloro-2-(2-fluoro-4-pyridyl)-4-[2-methyl-5-(trifluoromethyl)piperazin-1-yl]-1H-pyrimidin-6-one hydrochloride], the “Biomarker Method 3 (pEC50)” value in assay [1] (hydrochloride) came out at 5.11. The IC50 at Cdc7/ASK is 135 nM.

As for `Cl.O=c1[nH]c(-c2ccnc(F)c2)nc(N2CCNCC2C(F)(F)F)c1Cl` (single isomer, unassigned) [Compound 383], in assay [1], the “Biomarker Method 3 (pEC50)” value is given as 6.67. The IC50 at Cdc7/ASK is 4.47 nM.

With `O=c1[nH]c(-c2ccncc2F)nc(N2CCNCC(F)(F)C2)c1Cl` [Compound 399, 5-chloro-4-(6,6-difluoro-1,4-diazepan-1-yl)-2-(3-fluoro-4-pyridyl)-1H-pyrimidin-6-one hydrochloride], the EC50 in assay [1] is 1660 nM. Also, the IC50 on Cdc7/ASK is 12.6 nM.

Turning to `Cl.O=c1[nH]c(-c2ccnc(F)c2)nc(N2CCNCC2C(F)F)c1Cl` (single isomer, unassigned) [Compound 389], the “Biomarker Method 3 (pEC50)” value in assay [1] is on record as 5.68. For the same compound, the IC50 on Cdc7/ASK was 21.4 nM.

For the compound `CC(C)(F)C1CN(c2nc(-c3ccnc(F)c3)[nH]c(=O)c2Cl)CCN1` (single isomer, unassigned) [Compound 382, 5-chloro-4-[3-(1-fluoro-1-methyl-ethyl)piperazin-1-yl]-2-(2-fluoro-4-pyridyl)-1H-pyrimidin-6-one hydrochloride], the “Biomarker Method 3 (pEC50)” value in assay [1] (hydrochloride) was 6.16. Also, on Cdc7/ASK, the IC50 was 11.7 nM.

`Cl.O=c1[nH]c(-c2ccnc(F)c2)nc(N2CCNC(C3CC3)C2)c1Cl` (single isomer, unassigned) [Compound 394]: the “Biomarker Method 3 (pEC50)” value in assay [1] was determined as 5.26. Also, the IC50 at Cdc7/ASK is 70.8 nM.

For `O=c1[nH]c(-c2ccncc2)nc(N2CCNCC2C(F)F)c1Cl` (stereo not shown) [Compound 391], the EC50 in assay [1] was 3550 nM. In addition, the IC50 on Cdc7/ASK was 35.5 nM.

On to `O=c1[nH]c(-c2ccnc(F)c2)nc(N2CCNCC23CC3)c1Cl` [Compound 377], for which the EC50 in assay [1] was 148 nM. Further, the IC50 at Cdc7/ASK was 4.37 nM.

With `O=c1[nH]c(-c2ccncc2)nc(N2CCNCC(F)(F)C2)c1Cl` [Compound 374], the EC50 in assay [1] is 437 nM. Further, on Cdc7/ASK, the IC50 is 5.75 nM.

Turning to `Cl.O=c1[nH]c(-c2ccnc(F)c2)nc(N2CCNCC2C(F)(F)F)c1Cl` (single isomer, unassigned) [Compound 384], the “Biomarker Method 3 (pEC50)” value in assay [1] is 5.33. The IC50 on Cdc7/ASK was 42.7 nM.
